Assay results as given in US20230149409A1, “TREATMENT OF HUMAN PAPILLOMAVIRUS-ASSOCIATED CANCERS BY PD-L1 INHIBITORS” (priority 2021, published 2023).

Assays:
[1] = system: PD-L1 (U2OS/PD-L1 cells, Jurkat-PD-1-SHP cells); experiment: Src Homology Region 2 Domain-containing Phosphatase (SHP) assay; type: cell-based; conditions: Homo sapiens; U2OS/PD-L1 + Jurkat-PD-1-SHP cells, 2 hours
Outline: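 U2OS/PD-L1 cells and Jurkat-PD-1-SHP cells (5,000 each per well) were co-incubated with compound in RPMI1640/1% FBS for 2 h at 37° C, with final DMSO 0.05%. PathHunter chemiluminescence was read after 1 h at room temperature. IC50 was fitted from percent of DMSO-control activity against log concentration.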

[2] = target: T1, PD-L1 on CD14+ cells in human whole blood (Homo sapiens, UniProt Q9NZQ7); experiment: PD-L1 whole blood internalization assay; type: cell-based; conditions: 1 ng/mL interferon γ, CD14+ gated, 24 hour
T1 construct: Cells were gated on CD14+ (BD Biosciences) and PD-L1 expression determined by mean fluorescence intensity; host or cells: CD14+ cells in normal human whole blood, stimulated with human interferon gamma
Outline: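 Normal human whole blood exposed to compound concentration range plus 1 ng/mL IFN-γ for 18–20 h at 37 °C, then stained for PD-L1 and CD14, red cells lysed/fixed. PD-L1 MFI measured on CD14+ gated cells by flow cytometry; IC50 from percent inhibition versus log concentration fit.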

[3] = system: PD-L1 (PD-L1 aAPC/CHO-K1 cells, Jurkat-PD-1-NFAT effector cells); experiment: Nuclear Factor of Activated T-cells (NFAT) assay; type: cell-based; conditions: Cricetulus griseus; PD-L1 aAPC/CHO-K1 + Jurkat-PD-1-NFAT cells, 24 hours
Outline: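 PD-L1 aAPC/CHO-K1 cells (8000/well) were treated with compound (0.4% DMSO, 2 µM final), then co-cultured with Jurkat-PD-1-NFAT effector cells for 24 hours at 37° C. NFAT luciferase luminescence was normalized to DMSO as fold induction. Maximum induction is relative to the control compound's top FOI; EC50 is from curve fitting.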

[4] = system: select advanced solid tumors (HPV+ carcinomas); experiment: Phase 1 open-label clinical trial of Compound 30; type: in vivo, human; design: key: complete response (CR); partial response (PR); stable disease (SD); progressive disease (PD)
Description: Two open-label, nonrandomized, global multicenter Phase 1 studies in participants with select advanced solid tumors are being conducted for Compounds 24 and 30 in Table 1 supra. In addition to the primary endpoint of determining safety, tolerability, PAD and/or maximum tolerated dose (MTD) of each compound, the studies are exploring preliminary efficacy (complete response (CR), partial response (PR), stable disease (SD), or progressive disease (PD)) in participants with select advanced cancers, including virally mediated tumors such as HPV+ carcinomas. HPV+ tumors can be determined by a local laboratory using p16 IHC, polymerase chain reaction methods, or other locally-available method to detect HPV. Results for patients having solid tumors whose HPV+ status was confirmed, suspected or negative are shown below for Compound 24 and Compound 30 in Tables 4 and 5, respectively.

T1 sequence (Q9NZQ7 19-290): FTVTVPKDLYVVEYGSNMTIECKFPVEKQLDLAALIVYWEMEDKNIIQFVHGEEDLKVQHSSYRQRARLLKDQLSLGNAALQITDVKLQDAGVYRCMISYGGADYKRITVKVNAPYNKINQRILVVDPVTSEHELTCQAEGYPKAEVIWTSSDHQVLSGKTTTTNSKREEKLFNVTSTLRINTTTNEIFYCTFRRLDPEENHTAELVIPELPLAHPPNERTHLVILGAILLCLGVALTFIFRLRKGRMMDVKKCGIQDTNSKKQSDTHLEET

Row | Compound | IC50 [1] | IC50 [2] | EC50 [3] | Best Overall Response ([4]; Patient 1, 300 mg BID, Cervical cancer (SCC), p16 positive) | Best Overall Response ([4]; Patient 2, 300 mg BID, Nasopharyngeal (SCC), p16 negative) | Best Overall Response ([4]; Patient 3, 300 mg BID, Cervical cancer (SCC), p16 positive) | Best Overall Response ([4]; Patient 4, 400 mg BID, Cervical cancer (SCC), p16 positive) | Best Overall Response ([4]; Patient 5, 400 mg BID, Nasopharyngeal (SCC), HPV/p16 status Not determined) | Best Overall Response ([4]; Patient 6, 400 mg BID, Cervical cancer (SCC), Positive due to HSIL) | Best Overall Response ([4]; Patient 7, 400 mg BID, Acinic cell parotid gland carcinoma, HPV/p16 status Not determined) | Best Overall Response ([4]; Patient 8, 400 mg BID, Cervical cancer (adenosquamous), p16 positive) | Best Overall Response ([4]; Patient 9, 600 mg QD, Cervical cancer (SCC), p16 positive) | Best Overall Response ([4]; Patient 10, 600 mg QD, Cervical cancer (SCC and adenocarcinoma), HPV/p16 status Not determined) | Best Overall Response ([4]; Patient 11, 600 mg BID, Cervical cancer (SCC), p16 positive) | Best Overall Response ([4]; Patient 12, 600 mg BID, Penile cancer (SCC), p16 positive) | Best Overall Response ([4]; Patient 13, 200 mg BID, Anal canal (SCC), HPV/p16 status Not determined)
1 | Cc1c(Nc2nccc3cc(CN4CC[C@@H](O)C4)cnc23)cccc1-c1cccc(-c2nc3cc(CN4CC[C@@H](C(=O)O)C4)cc(C#N)c3o2)c1C [Compound 1, (R)-1-((7-cyano-2-(3′-(3-(((R)-3-hydroxypyrrolidin-1-yl)methyl)-1,7-naphthyridin-8-ylamino)-2,2′-dimethylbiphenyl-3-yl)benzo[d]oxazol-5-yl)methyl)pyrrolidine-3-carboxylic acid] | < 10 nM | < 500 nM | < 100 nM |  |  |  |  |  |  |  |  |  |  |  |  | 
2 | Cn1c(C(=O)Nc2cccc(-c3cccc(NC(=O)c4nc5c(n4C)CCN(CCC46CCC(C(=O)O)(CC4)C6)C5)c3Cl)c2Cl)nc2c1CCN(CCC13CCC(C(=O)O)(CC1)C3)C2 [Compound 30, 4,4′-(((((2,2′-dichloro-[1,1′-bipheiryl]-3,3′-diyl)bis(azanediyl))bis(carbonyl))bis(1-methyl-1,4,6,7-tetrahydro-5H-imidazo[4,5-c]pyridine-2,5-diyl))bis(ethane-2,1-diyl))bis(bicyclo[2.2.1]heptane-1-carboxylic acid)] | < 10 nM | < 100 nM | < 100 nM | PR | SD | SD | PD | SD | SD | PD | PR | PD | PD | PD | SD | PD
